The structures appear in SMILES notation. pIC50: −log10 of the molar value.

The source of these data is US20090005437A1, “Alpha-Ketoglutarates and Their Use as Therapeutic Agents” (priority 2004, published 2009).

Test [1] concerns HIF1α. Kind of test: HIF1α induction in SDH-inhibited cells transfected with Di3 shRNA (western blot). Type of test: cell-based. Conditions: 24 hour treatment.
The next test has as its system PHD. The experiment in a line: PHD activity in cells co-expressing GFP-ODD fusion protein and HA-pVHL (GFP fluorescence, western blot). Type of test: cell-based, human.
Test [2] relates to HIF1α. The experiment in a line: HIF1α levels in HEK293 cells in which HIF1α was induced by DMS (western blot). Conditions: HEK293, DMS 24 hours, then ester 3 hours. Type of test: cell-based, human. For orientation: In western blotting, separated proteins are transferred to a membrane and probed.
The test system of the next test is HEK293 cells. The experiment in a line: Measurement of intracellular α-ketoglutarate (glutamate dehydrogenase assay). Type of test: cell-based, human. The settings on record: 1 mM, 5 hours.
Test [3] has as its system PHD (HIFα prolyl hydroxylase). The experiment in a line: In vitro PHD activity (hydroxylation of in vitro-translated HA-ODDD by cell extracts, gel shift on SDS-PAGE). Format: biochemical, human. (A gel shift assay detects complexes by their altered migration in electrophoresis.)
A further test concerns HIF-1α. The experiment in a line: HIF-1α levels in cells incubated with DMS under normoxic conditions (western blot). Type of test: cell-based. The settings on record: 20 mM, 48 hours.
In test [4] the test system is cells under hypoxic conditions. The experiment in a line: Cell death of cells grown under hypoxic conditions (0.5% oxygen).

Excerpt for HIF-1α: Protein analyses. […] Following SDS-PAGE, proteins were blotted onto nitrocellulose and analyzed with the following antibodies: anti-HIF-1α (BD Biosciences), anti-HA (Roche), anti-GFP (BD Biosciences) or anti-Actin (Sigma).

Consider `O=C(O)CCC(=O)C(=O)OCc1cccc(C(F)(F)F)c1` [TFMB-α-ketoglutarate, 2-Oxopentanedioic acid 1-(3-trifluoromethyl-benzyl)ester], for which the “HIF1α induction observed with Di3 transfection” value in the test on HIF1α [1] is “reversed”. Further, the “GFP fluorescence in DMS-treated cells” value in the test with PHD is given as “reduced GFP fluorescence”. Moreover, the “HIF1α protein levels after DMS induction” value in the test with HIF1α [2] is listed as “substantially reduce the levels of HIF1α protein”.

Turning to `[Cl-].[Cl-].[Co+2]` [CoCl2], the “GFP-ODD levels (western blot)” value in the test on PHD is given as “increase in GFP-ODD levels”.

With `O=C(O)CCC(=O)C(=O)O` [free α-ketoglutaric acid, 2-Oxo-pentanedioic acid], the “Change of intracellular α-ketoglutarate above basal levels” value in the test on HEK293 cells was “no increase”.

What is called pIC50 is the IC50 on a negative log10 scale, so that one unit is a factor of ten. As to `O=C(O)CCC(=O)O` [succinate, succinic acid], the “PHD activity (appearance of non-hydroxylated HA-ODD)” value in test [3] (HeLa cell extracts, succinate held constant at 1 mM) was “inhibition of PHD activity”. For the same compound, the “PHD activity in vitro (production of hydroxylated HA-ODDD, mobility on SDS-PAGE)” value in test [3] (cell extracts with α-ketoglutarate, Fe2+, ascorbate, DFO 5 mM, succinate 0.1-5.0 mM) is reported as “decrease in the production of hydroxylated HA-ODDD”. Besides, the pIC50 in test [3] (read-out: IC50 for inhibition of PHD activity (HA-ODDD hydroxylation), cell extracts with α-ketoglutarate, Fe2+, ascorbate) is 3.30.

On to `COC(=O)CCC(=O)OC` [DMS, dimethyl ester succinic acid], for which the GFP fluorescence result in the test on PHD (48 hours after treatment with DMS, 10% oxygen) is on record as “increase in GFP fluorescence”. Further, the “Level of GFP-ODD (western blot)” value with PHD (DMS alone, 48 hours) is listed as “rose”. The “HIF-1α levels (western blot)” value with HIF-1α was “elevated levels of HIF-1α”.

With `CCCCCCCCOC(=O)C(=O)CCC(=O)O` [octyl-α-ketoglutarate, 2-Oxo-pentanedioic acid 1-octyl ester], the “HIF1α induction observed with Di3 transfection” value in the test on HIF1α [1] is listed as “reversed”. Further, the “GFP fluorescence in DMS-treated cells” value in the test on PHD is recorded as “reduced GFP fluorescence”. Further, the “Cell death under hypoxic conditions” value in test [4] is “significant cell death”. For the same compound, the “HIF1α protein levels after DMS induction” value in the test on HIF1α [2] is given as “reversed DMS-induction of HIF1α completely”.
